Tested on: 233499-124-R-J3-PDC complex spheroid growth
Assay: Anticancer human tumor 233499-124-R-J3-PDC patient-derived colon adenocarcinoma cell line growth inhibition [AhR]
Conditions: for IC50: curve of first compound; for viability, T/C: stronger effect = lower value
How it was run: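 Complex tumor spheroids co-cultured with HUVEC and human MSC stroma; AhR antagonists tested in combination with standard-of-care and investigational agents. Top concentration at or near clinical Cmax (else 10 microM), half-log dilutions; growth expressed as percent test/control.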
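Note: spheroids exposed to agents for seven days before reading.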

Cn1ncnc1C1c2n[nH]c(=O)c3cc(F)cc(c23)NC1c1ccc(F)cc1 (stereo not given) + CC(CO)NC(=O)c1cc(-c2ccc(Cl)cc2)nn(-c2cnn(C)c2)c1=O
IC50 (second compound 0.1 µM): > 100 nM
IC50 (second compound 0.316 µM): > 100 nM
IC50 (second compound 1 µM): > 100 nM
IC50 (second compound 3.16 µM): > 100 nM
IC50 (second compound 10 µM): > 100 nM
viability, T/C (second compound 0.1 µM, first compound 0.000316 µM): 97.1%
viability, T/C (second compound 0.1 µM, first compound 0.001 µM): 102%
viability, T/C (second compound 0.1 µM, first compound 0.00316 µM): 101%
viability, T/C (second compound 0.1 µM, first compound 0.01 µM): 106%
viability, T/C (second compound 0.1 µM, first compound 0.0316 µM): 86.7%
viability, T/C (second compound 0.1 µM, first compound 0.1 µM): 104%
viability, T/C (second compound 0.316 µM, first compound 0.000316 µM): 90.6%
viability, T/C (second compound 0.316 µM, first compound 0.001 µM): 104%
viability, T/C (second compound 0.316 µM, first compound 0.00316 µM): 88.6%
viability, T/C (second compound 0.316 µM, first compound 0.01 µM): 92.6%
viability, T/C (second compound 0.316 µM, first compound 0.0316 µM): 108%
viability, T/C (second compound 0.316 µM, first compound 0.1 µM): 87.5%
viability, T/C (second compound 1 µM, first compound 0.000316 µM): 93.6%
viability, T/C (second compound 1 µM, first compound 0.001 µM): 103%
viability, T/C (second compound 1 µM, first compound 0.00316 µM): 92.2%
viability, T/C (second compound 1 µM, first compound 0.01 µM): 109%
viability, T/C (second compound 1 µM, first compound 0.0316 µM): 77.6%
viability, T/C (second compound 1 µM, first compound 0.1 µM): 101%
viability, T/C (second compound 3.16 µM, first compound 0.000316 µM): 97%
viability, T/C (second compound 3.16 µM, first compound 0.001 µM): 103%
viability, T/C (second compound 3.16 µM, first compound 0.00316 µM): 87.9%
viability, T/C (second compound 3.16 µM, first compound 0.01 µM): 98.9%
viability, T/C (second compound 3.16 µM, first compound 0.0316 µM): 91.2%
viability, T/C (second compound 3.16 µM, first compound 0.1 µM): 87.6%
viability, T/C (second compound 10 µM, first compound 0.000316 µM): 83.2%
viability, T/C (second compound 10 µM, first compound 0.001 µM): 80.8%
viability, T/C (second compound 10 µM, first compound 0.00316 µM): 90.2%
viability, T/C (second compound 10 µM, first compound 0.01 µM): 83%
viability, T/C (second compound 10 µM, first compound 0.0316 µM): 87%
viability, T/C (second compound 10 µM, first compound 0.1 µM): 78.7%

From PubChem BioAssay AID1918993 (Molecular Pharmacology Branch, DTP, NCI, 2023)
